The results in this text go back to ChEMBL document CHEMBL5143755, “Restoration of Motor Function Post-Neurological Injury Using Serotonergic Agonist” (ACS Med Chem Lett, 2022).

In this experiment the target is 5-hydroxytryptamine receptor 2A (Homo sapiens, UniProt P28223). The experiment in a line: Agonist activity at human 5-HT2A receptor assessed as activation of calcium mobilization incubated for 2 mins by Calcium-6 dye based FLIPR assay. Type of experiment: functional.

A value given as a limit tells only on which side of the number the result lay.

Chain of 5-hydroxytryptamine receptor 2A (P28223 whole entry): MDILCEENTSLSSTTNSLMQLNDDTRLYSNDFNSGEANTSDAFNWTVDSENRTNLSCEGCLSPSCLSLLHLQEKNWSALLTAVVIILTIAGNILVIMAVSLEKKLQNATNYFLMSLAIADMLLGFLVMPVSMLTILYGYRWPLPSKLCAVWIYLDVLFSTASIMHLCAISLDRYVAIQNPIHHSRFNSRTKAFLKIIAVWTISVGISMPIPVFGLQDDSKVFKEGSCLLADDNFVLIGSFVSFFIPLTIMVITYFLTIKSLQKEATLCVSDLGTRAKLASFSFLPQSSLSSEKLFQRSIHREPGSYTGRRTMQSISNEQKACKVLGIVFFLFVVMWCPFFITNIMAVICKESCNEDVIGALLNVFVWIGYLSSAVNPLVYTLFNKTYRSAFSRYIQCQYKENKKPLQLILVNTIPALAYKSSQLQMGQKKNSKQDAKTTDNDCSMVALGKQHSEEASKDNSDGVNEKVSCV

Take `[2H]C1([2H])CC(c2c[nH]c3cccc(O)c23)C([2H])([2H])N1` (stereo not given): the EC50 was greater than 10000 nM.
The figure for `[2H]C([2H])N1CCC(c2c[nH]c3cccc(O)c23)C1` (stereo not given) is less than 1000 nM; for `[2H]C1([2H])CC(c2c[nH]c3cccc(OCc4ccccc4)c23)C([2H])([2H])N1C` (stereo not given) it is greater than 10000 nM.
As for `[2H]C1([2H])CC(c2c[nH]c3cccc(OCc4ccccc4)c23)C([2H])([2H])N1` (stereo not given), the EC50 was less than 1000 nM.
For the compound `[2H]C1([2H])CC(c2c[nH]c3cccc(O)c23)C([2H])([2H])N1C` (stereo not given), the EC50 is less than 1000 nM.
